According to paper PMC9045296, “Development of Antifungal Peptides against Cryptococcus neoformans; Leveraging Knowledge about the cdc50Δ Mutant Susceptibility for Lead Compound Development” (Microbiology Spectrum, 2022):
In brackets after ≈: the same amount, converted by molar mass. Like-named read-outs stand apart in the source and are kept apart here. Residues, ends and D or L forms follow the SMILES beside them. *: point of attachment. Myristoyl = CCCCCCCCCCCCCC(=O)*

Legend:
[1] = test system: C. neoformans wild-type strain H99; assay: microbe, parasite or virus in culture; format: cell-based, Cryptococcus neoformans; conditions: for MIC: Cryptococcus neoformans
Description: (§1) Our assays followed standard CLSI protocol for broth microdilution assays using yeasts ([32]). Microbes were passaged in YPD media at 37°C with mixing for 2 days before harvesting with an inoculation loop to prepare monocultures on Sabouraud Dextrose Agar (SDA) plates. Monocultures on SDA plates were incubated for 2 days at 37°C before harvesting cells for microdilution assays. RPMI media (100 μL) was charged to each of the 96 wells in a 96-well plate, with an additional 100 μL in the first column. Peptide-DMSO solution (4 μL) at 12.8 mg/mL was charged to each of the wells in the first column. The 100 μL was serially diluted by a factor of 2 from the first column to the 11th column. Microbe inoculant was then prepared. An inoculation loop was used to transfer 1–3 colonies of cells to 1 mL phosphate buffer solution (PBS). The PBS and microbe solution was made uniform by vortex mixing. Cell concentration was computed by comparing the absorbance at 530 nm to 1x McFarland standard solution and multiplying the resulting ratio by 10^7 cell/mL conversion factor. Plate inoculant was prepared by diluting the PBS microbe solution to 5000 cell/mL, in RPMI media. A 100 μL aliquot of cells was transferred to each of the wells on the plate other than column 11 for the no growth control. The operating volume was 200 μL, with 500 CFU per well for a final concentration of 2.5*10^3 cells/mL. Inoculated plates were incubated for 48 h at 37°C and read at 24 and 48 h ([33]).

[2] = test system: C. neoformans H99; format: cell-based, Cryptococcus neoformans
Description: (§2) Again, 200 μL was the operating volume, 500CFU per well, 2.5*10^3 cell/mL. Plates were incubated for 48 h at 37°C and read thereafter. The Fractional Inhibitory Concentration Index were calculated in Equation 1: FICIndex=FICA/MICA+FICB/MICB

[3] = test system: ΔCDC50 mutant strain; format: cell-based, Cryptococcus neoformans
Description: as §2

[4] = test system: human red blood cells (RBCs); assay: Hemolysis assay; format: cell-based; conditions: human RBC, 1 h at 37°C, relative to Triton X-100
Description: Operating conditions were 100 μL and 2.5*10^8cell/mL. […] The plate was incubated at 37°C for 1 h. […] The scans were run in triplicate.

[5] = test system: exofacial PS on C. neoformans cells; assay: AF350-annexin V flow cytometry assay; format: cell-based, Cryptococcus neoformans; conditions: 0.128 mg/mL peptide, 5*10^6 cell/mL, 20 min at 25°C, triplicate; control 0.2 ± 0.1%
From the text: We sought to determine whether the activities of the peptides were related to the lipid-flipping activity of the P4-ATPase. […] The intensity of the AF350-annexin V signal corresponds to concentration of PS on the exofacial side of the membrane. The propidium iodine signal corresponds to cell viability. […] Single cells were first selected and gated based on morphology to ensure homogeneity among the cell population (4A, 4B). We examined cells with low propidium iodine intensity (PI-A < 9 RU) and high AF350-annexin V intensity (Annexin V-A > 9 RU) (4C, 4D). Under these gating parameters there should be, respectively, low nonspecific cell death and high exofacial PS.
Stock microbes were defrosted from the –80°C freezer and were passed twice for 48 h each in YPD media. The YPD media was removed by spinning down and the supernatant was decanted. Pelletized cells were resuspended in 1 mL PBS media and washed for 5 min with incubation at 25°C and 250 RPM. Washed cells were spun down again and suspended in 1 mL of PBS solution. cells were diluted 20-fold into 1 mL fungal working solution in an eppendorf. Cell concentration was quantified via comparison to 1X McFarlain’s standard on a plate reader using the absorbance value at 530 nm. An aliquot of 1*10^6 cells in 100 μL was created (1*10^7cell/mL). A 100 μL aliquot of peptide working solution at 0.256 mg/mL was added to the cell suspension for final operating parameters of 200 μL, 0.128 mg/mL peptide, and 5*10^6cell/mL. The cells were incubated for 20 min at 25°C and 250RPM. Baseline and experimental samples were prepared in triplicate. Cells were stained using an operating concentration of 0.001 mg/mL Propidium Iodine (PI) and a 40-fold dilution of Alexa Fluor 350 labeled annexin V as per manufactures instructions. After staining the cells, samples were spun down and supernatant decanted. Cells were then fixed in 4% formaldehyde for 5 min. Fixed cells were spun down and supernatant decanted and resuspended in 400 μL 1% formaldehyde for flowcytometry. Samples were collected at a slow flow rate on a MACS Quant 10 device (Miltenyi Biotech, Auburn, CA) with 50,000 events collected per injection.

[6] = test system: C. neoformans H99; assay: SDS and plate spotting assay; format: cell-based, Cryptococcus neoformans; conditions: H99 pretreated with 128 μg/mL peptide for 1 h at 30°C; compared to untreated or DMSO controls
Description: Briefly, cultures of C. neoformans were grown in YPD and then spotted on YPD plates containing 0.03% SDS.
To test cell integrity, C. neoformans strains from 3 mL YPD overnight cultures were washed, resuspended, and serially diluted (1:10) in dH2O and spotted (5 μl) on YPD agar plates or YPD agar plates containing 0.03% SDS and incubated for 2 days at 30°C and 37°C. […] Of each strain, yeast cells were inoculated into liquid YPD with 128 μg/mL or 64 μg/mL peptide and co-incubated for 1h at 30°C. And then, 10-fold serial dilutions were prepared, and 5 μl of each was spotted on YPD and YPD agar plates containing 0.03% SDS. The results were photographed after a 48 h of incubation. Their growth was determined by serial dilutions and the fungal colonies were assessed by CFU numbers.

[7] = test system: cdc50Δ mutant strain; format: cell-based, Cryptococcus neoformans; conditions: Table S1, drug alone
Description: as §1

[8] = test system: C. neoformans wild-type strain H99; conditions: cited from earlier work
From the text: (§3) Recently, mutation studies discovered an essential role of Cryptococcus lipid flippase in echinocandin resistance ([6]). The lipid flippase is composed of the core P4 type ATPase (P4-ATPase) and a regulatory subunit Cdc50 ([7]). […] This loop region of Cdc50 has been reported in other organisms to bind to the P4-ATPase to regulate flippase activity ([8]).

[9] = test system: cdc50Δ mutant strain; conditions: cited from earlier work
From the text: as §3

Row | Compound | MIC H99 ([1]; Table S1, drug alone, wild type H99) | MIC (FIC) of caspofungin in the presence of the AW9-Ma peptide ([2]; C. neoformans wild type, combination with caspofungin) | FIC H99 Caspofungin ([2]; Table S1, concentration of caspofungin in combination with the peptide, H99) | FIC H99 Peptide ([2]; Table S1, concentration of peptide in combination with caspofungin, H99) | FIC ΔCDC50 Caspofungin ([3]; Table S1, concentration of caspofungin in combination with the peptide) | FIC ΔCDC50 Peptide ([3]; Table S1, concentration of peptide in combination with caspofungin) | hemolysis at the concentrations needed for synergy [4] | hemolytic activity (fractional lysis) ([4]; varying concentrations, absorbance 410 nm) | percentage of cells with low propidium iodine (PI-A < 9 RU) and high AF350-annexin V intensity (Annexin V-A > 9 RU) [5] | growth in terms of CFU on agar medium with 0.03% SDS [6] | MIC ([1]; Table S1, drug alone, wild type H99, read-out: MIC H99) | MIC ([1]; drug alone, H99 wild type, CLSI broth microdilution, RPMI, 2.5*10^3 cells/mL, 37°C, read at 24 and 48 h, read-out: MIC) | MIC ΔCDC50 [7] | MIC value of caspofungin [8] | MIC value of caspofungin [9]
1 | CCCCCCCCCCCCCC(=O)N[C@@H](Cc1c[nH]c2ccccc12)C(=O)NCC(=O)NCC(=O)N[C@H](C(=O)N[C@@H](CCCCN)C(=O)N[C@@H](CCCCN)C(=O)N[C@@H](CC(N)=O)C(=O)N[C@@H](Cc1ccc(O)cc1)C(=O)N[C@@H](C)C(=O)O)[C@@H](C)CC [AW9-Ma] (Myristoyl-WGGIKKNYA-OH) | 64 µg/mL (≈ 51.3 µM) | 4 µg/mL | 4 µg/mL | 16 µg/mL | 0.125 µg/mL | 0.125 µg/mL | low amounts of hemolysis | concentrate-dependent minimal amount of hemolysis | 67.6% ± 2.3 | significantly reduced growth |  |  |  |  | 
2 | CC[C@H](C)C[C@H](C)CCCCCCCCC(=O)N[C@H]1C[C@@H](O)[C@@H](NCCN)NC(=O)[C@@H]2[C@@H](O)CCN2C(=O)[C@H]([C@H](O)CCN)NC(=O)[C@H]([C@H](O)[C@@H](O)c2ccc(O)cc2)NC(=O)[C@@H]2C[C@@H](O)CN2C(=O)[C@H]([C@@H](C)O)NC1=O [caspofungin, reference compound] |  |  |  |  |  |  |  |  |  |  | 16 µg/mL (≈ 14.6 µM) | 16 µg/mL (≈ 14.6 µM) | 4 µg/mL (≈ 3.66 µM) | 16 µg/mL | 4 µg/mL
